{
  "source": "paper PMC4699463",
  "about": "(2015)",
  "test_in_all_cases": "F-neo fluorescence displacement",
  "key": {"[1]": {"tested_on": "hsa-miR 142 (RNA, miRNA) CAUAAAGUAGAAAGCACUACUUU/AGUAGUGCUUUCUACUUUAUGUU", "conditions": "25 mM KCl; 10 mM sodium phosphate, 0.05 mM EDTA, pH 6.5; tracer 100 nM F-neo, 100 nM miRNA; per site"}, "[2]": {"tested_on": "hsa-miR 335 (RNA, miRNA) UCAAGAGCAAUAACGAAAAAUGUUU/ACAUUUUUCGUUAUUGCUCUUGAUU", "conditions": "25 mM KCl; 10 mM sodium phosphate, 0.05 mM EDTA, pH 6.5; tracer 100 nM F-neo, 100 nM miRNA; per site"}, "[3]": {"tested_on": "hsa-miR 504 (RNA, miRNA) AGACCCUGGUCUGCACUCUAUCUU/GAUAGAGUGCAGACCAGGGUCUUU", "conditions": "25 mM KCl; 10 mM sodium phosphate, 0.05 mM EDTA, pH 6.5; tracer 100 nM F-neo, 50 nM miRNA; per site"}, "[4]": {"tested_on": "pre-hsa-miR 504 (RNA, miRNA) GCUGCUGUUGGGAGACCCUGGUCUGCACUCUAUCUGUAUUCUUACUGAAGGGAGUGCAGGGCAGGGUUUCCCAUACAGAGGGC", "conditions": "25 mM KCl; 10 mM sodium phosphate, 0.05 mM EDTA, pH 6.5; tracer 100 nM F-neo, 16.7 nM pre-miRNA; per site"}},
  "data": [
    {"smiles": "NC[C@@H]1O[C@H](O[C@H]2[C@@H](O)[C@H](O[C@@H]3[C@@H](O)[C@H](N)C[C@H](N)[C@H]3O[C@H]3O[C@H](CN)[C@@H](O)[C@H](O)[C@H]3N)O[C@@H]2CO)[C@H](N)[C@@H](O)[C@@H]1O", "values": [
      {"measurement": "IC50", "setting": "[1]", "value": "95.7 ± 5.6", "unit": "nM"},
      {"measurement": "IC50", "setting": "[2]", "value": "117.4 ± 8.1", "unit": "nM"},
      {"measurement": "IC50", "setting": "[3]", "value": "70.3 ± 1.6", "unit": "nM"},
      {"measurement": "IC50", "setting": "[4]", "value": "56.2 ± 2.3", "unit": "nM"}
    ]}
  ]
}
